Measured values reported in patent EP0929299B1, “SUBSTITUTED 1,2,3,4-TETRAHYDRO-2-DIBENZOFURANAMINES AND 2-AMINOCYCLOHEPTA(b)BENZOFURANS” (ELI LILLY AND COMPANY, priority 1996, dated 1998).

Test system: neuronal protein extravasation
Assay: Neuronal protein extravasation in dura after electrical stimulation of the trigeminal ganglion (Evans Blue)
Format: in vivo, Harlan Sprague-Dawley rats or guinea pigs
Method: Harlan Sprague-Dawley rats (225-325 g) or guinea pigs from Charles River Laboratories (225-325 g) were anesthetized with sodium pentobarbital intraperitoneally (65 mg/kg or 45 mg/kg respectively) and placed in a stereotaxic frame (David Kopf Instruments) with the incisor bar set at - 3.5 mm for rats or -4.0 mm for guinea pigs. Following a midline sagital scalp incision, two pairs of bilateral holes were drilled through the skull (6 mm posteriorly, 2.0 and 4.0 mm laterally in rats; 4 mm posteriorly and 3.2 and 5.2 mm laterally in guinea pigs, all coordinates referenced to bregma). Pairs of stainless steel stimulating electrodes (Rhodes Medical Systems, Inc.) were lowered through the holes in both hemispheres to a depth of 9 mm (rats) or 10.5 mm (guinea pigs) from dura.
The femoral vein was exposed and a dose of the test compound was injected intravenously (1 mL/kg). […]
A fluorescence microscope (Zeiss) equipped with a grating monochromator and a spectrophotometer was used to quantify the amount of Evans Blue dye in each sample. An excitation wavelength of approximately 535 nm was utilized and the emission intensity at 600 nm was determined. […] This facilitated the computer-controlled movement of the stage with fluorescence measurements at 25 points (500 µm steps) on each dural sample. The mean and standard deviation of the measurements was determined by the computer. […]

Structure (SMILES)	Inhibition of Protein Extravasation i.v. ID50 (i.v., 10 minutes before stimulation of the trigeminal ganglion, species (rat or guinea pig) not given, ID50 approximated from dose-response curve) [mmol/kg]	Inhibition of Protein Extravasation i.v. ID50 (mMol/kg) (iv)
O=C(O)C(=O)O.Oc1ccc2[nH]cc(C3CCNCC3)c2c1 [Compound III, 5-hydroxy-3-(4-piperidinyl)-1H-indole oxalate]	8.9e-09	–
CCN(CC)C1CCc2cccc(Cl)c2C1.Cl (centres unmarked) [Compound IV, 8-chloro-2-diethylamino-1,2,3,4-tetrahydronaphthalene hydrochloride]	–	1.2x10-^7 mMol/kg
